Experimental data published in patent publication US20260364184A1, “COMPOUND BASED ON OXOISOINDOLINYL-SUBSTITUTED TETRAHYDROPYRIMIDINE-DIONE AND USE THEREOF” (GLUETACS THERAPEUTICS (SHANGHAI) CO., LTD., priority 2023, published 2026).
Like-named read-outs stand apart in the source and are kept apart here.

What was measured:
[1] = system: Human non-small cell lung cancer cell line NCI-H2228; experiment: Inhibition of H2228 cell proliferation (CellTiter luminescent viability); conditions: Table IB2, ALK inhibitor-based, 96 hours; for inhibition at 0.01 µM: H2228, 10 nM, read-out: Inhibition Rate at 10 nM (%); for inhibition at 0.5 µM: H2228, 500 nM, read-out: Inhibition Rate at 500 nM (%)
Method: (§1) The tumor cells used herein were cultured in a cell culture medium listed in table 3 at 37 °C in an incubator with 5% CO2. Prior to experimentation, all cell lines used were correctly identified by STR profiling, and tested negative for mycoplasma contamination using a mycoplasma detection kit through routine screenings.
(§2) The IC50 values of the compounds of the present disclosure (including the compounds in Table 1, Table 2, and Examples 1-468) were determined using the CellTiter-Meiluncell Luminescent Cell Viability Assay Kit from Dalian Meilun Biotech Co., Ltd. The detailed procedure is as follows: Tumor cells were seeded in 96-well cell culture plates at the densities specified in Table 4. On the following day, the test compounds of the present disclosure were subjected to serial dilution. The dilution can be performed according to one of the following two methods: • (1) The first dilution method: The test compounds of the present disclosure (including the compounds in Table 1, Table 2, and Examples 1-468) were subjected to 5-fold serial dilutions starting from a highest concentration of 2000 μM, resulting in a total of 9 concentrations from high to low (2000, 400, 80, 16, 3.2, 0.64, 0.128, 0.0256, 0.00512 μM). Subsequently, 0.5 μL of the test compound dilution was transferred into the 96-well plate containing the cells, with each well containing 100 μL of cell culture medium. […] Into the 96-well plate, the diluted test compounds and corresponding detection reagents were added, resulting in final test compound concentrations of 500 nM and 10 nM, respectively. The experimental procedure is described below using the diluted 2 μM test compound as an example.
(§3) 0.5 μL of the aforementioned diluted compound of the present disclosure (including the compounds in Table 1, Table 2, and Examples 1-468) was added to the seeded cells in 100 μL of medium, yielding a final test compound concentration of 10 nM. After the cells were treated with the compounds of the present disclosure for a specified period, the cell viability assay reagent was added to the culture medium according to the kit's instructions to determine cell viability. […] All controls were treated using the same procedure as the compounds of the present disclosure. The growth inhibition curves for the compounds of the present disclosure were plotted using Prism GraphPad software, and the IC50 values were calculated therefrom.

[2] = system: Human large cell immunoblastic lymphoma cell line SR; experiment: Inhibition of SR cell proliferation (CellTiter luminescent viability); assay type: cell-based; conditions: Homo sapiens, Table IB2, ALK inhibitor-based, 96 hours; for inhibition at 0.01 µM: 10 nM, read-out: Inhibition Rate at 10 nM (%); for inhibition at 0.5 µM: 500 nM, read-out: Inhibition Rate at 500 nM (%)
Summary of the method: (§4)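 IC50 is fitted from luminescent viability (CellTiter-Meiluncell) curves. Nine-point, 5-fold dilution series (top stock 2000 μM) are added at 0.5 μL per 100 μL medium to cells plated the day before, with growth at 37 °C and 5% CO2.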

[3] = system: Human myeloid monocytic leukemia cell line (MV-4-11); experiment: Inhibition of MV-4-11 cell proliferation (CellTiter luminescent viability); assay type: cell-based; conditions: Homo sapiens, MV4-11; for inhibition at 0.01 µM: read-out: Inhibition Rate at 10 nM (%); for inhibition at 0.5 µM: read-out: Inhibition Rate at 500 nM (%)
Summary of the method: as §4

[4] = system: Human diffuse large B-cell lymphoma cell line (WSU-DLCL2); experiment: Inhibition of WSU-DLCL2 cell proliferation (CellTiter luminescent viability); assay type: cell-based; conditions: Homo sapiens
Method: as §1, §2, §3

[5] = system: Human Acute T Lymphoblastic Leukemia Cells (Molt-4); experiment: Inhibition of Molt-4 cell proliferation (CellTiter luminescent viability); assay type: cell-based; conditions: Homo sapiens, MOLT-4, Molt-4; for inhibition at 0.01 µM: 10 nM, read-out: Inhibition Rate at 10 nM (%); for inhibition at 0.5 µM: 500 nM, read-out: Inhibition Rate at 500 nM (%)
[6] = system: Human T lymphocytic leukemia cell line (Jurkat); experiment: Inhibition of Jurkat cell proliferation (CellTiter luminescent viability); assay type: cell-based; conditions: Table IC1, BTK inhibitor-based, 96 hours, read-out: Inhibitory activity (IC50, nM) on tumor cell proliferation, Jurkat
[7] = system: Human gastric cancer cell line MGC803; experiment: Inhibition of MGC803 tumor cell proliferation (CellTiter luminescent viability); assay type: cell-based; conditions: Table IC1, BTK inhibitor-based; MGC803, 96 hours; read-out: Inhibitory activity (IC50, nM) on tumor cell proliferation, MGC803
Method: as §1, §2, §3

[8] = system: Human non-small cell lung cancer cell line NCI-H1975; experiment: Inhibition of H1975 cell proliferation (CellTiter luminescent viability); assay type: cell-based; conditions: Table IC1, BTK inhibitor-based; H1975, 96 hours; read-out: Inhibitory activity (IC50, nM) on tumor cell proliferation, H1975
Summary of the method: as §4

[9] = system: Human Multiple myeloma cell line (MM.1S); experiment: Inhibition of MM.1S cell proliferation (CellTiter luminescent viability); assay type: cell-based; conditions: Table IC1, BTK inhibitor-based, 96 hours, read-out: Inhibitory activity (IC50, nM) on tumor cell proliferation, MM.1S
Summary of the method: as §4

JEKO-1 = experiment: Inhibition of JEKO-1 cell proliferation (CellTiter luminescent viability); assay type: cell-based, human; conditions: Table IC1, BTK inhibitor-based; JEKO-1, 96 hours; read-out: Inhibitory activity (IC50, nM) on tumor cell proliferation, JEKO-1
Method: as §1, §2, §3

[10] = Table IB2, ALK inhibitor-based, MV-4-11, 10 nM, 96 hours
[11] = Table IB2, ALK inhibitor-based, MV-4-11, 500 nM, 96 hours

| Compound | inhibition at 0.01 µM [1] [%] | inhibition at 0.5 µM [1] [%] | inhibition at 0.01 µM [2] [%] | inhibition at 0.5 µM [2] [%] | inhibition at 0.01 µM [3, 10] [%] | inhibition at 0.5 µM [3, 11] [%] | also measured |
| --- | --- | --- | --- | --- | --- | --- | --- |
| COc1cc(N2CCC(N3CCN(Cc4ccc5c(c4)CN(N4CCC(=O)NC4=O)C5=O)CC3)CC2)ccc1Nc1ncc(Cl)c(Nc2ccccc2P(C)(C)=O)n1 [GT-08146, 1-(5-((4-(1-(4-((5-chloro-4-((2-(dimethylphosphoryl)phenyl)amino)pyrimidin-2-yl)amino)-3-methoxyphenyl)piperidin-4-yl)piperazin-1-yl)methyl)-1-oxoisoindolin-2-yl)dihydropyrimidine-2,4 (1H,3H)-dione] | 20 to 30 | 60 to 80 | 45 to 55 | 90 to 100 | 15 to 20 | 90 to 100 | – |
| COc1cc(N2CCC(N3CCN(Cc4ccc5c(c4)C(=O)N(N4CCC(=O)NC4=O)C5=O)CC3)CC2)ccc1Nc1ncc(Cl)c(Nc2ccccc2P(C)(C)=O)n1 [GT-08147, 5-((4-(1-(4-((5-chloro-4-((2-(dimethylphosphoryl)phenyl)amino)pyrimidin-2-yl)amino)-3-methoxyphenyl)piperidin-4-yl)piperazin-1-yl)methyl)-2-(2,4-dioxotetrahydropyrimidin-1(2H)-yl)isoindoline-1,3-dione] | 20 to 30 | 45 to 55 | 10 to 15 | 90 to 100 | 20 to 30 | 60 to 80 | – |
| C[C@@H]1CNC(=O)c2cc3ccc(C(=O)Nc4cnn(Cc5ccc(N6CCC(N7CCN(Cc8ccc9c(c8)CN(N8CCC(=O)NC8=O)C9=O)CC7)CC6)cc5)c4)nc3n21 [GT-08151, (R)—N-(1-(4-(4-(4-((2-(2,4-dioxotetrahydropyrimidin-1(2H)-yl)-1-oxoisoindolin-5-yl)methyl)piperazin-1-yl)piperidin-1-yl)benzyl)-1H-pyrazol-4-yl)-9-methyl-6-oxo-6,7,8,9-tetrahydropyrido[3′,2′: 4,5]pyrrolo[1,2-a]pyrazine-2-carboxamide] | – | – | – | – | – | – | inhibition at 0.01 µM ([4]; WSUDLCL2, 10 nM, read-out: Inhibition Rate at 10 nM (%)): 10 to 15%; inhibition at 0.5 µM ([4]; WSUDLCL2, 500 nM, read-out: Inhibition Rate at 500 nM (%)): 50 to 60%; inhibition at 0.01 µM ([3]; MV-4-11, 10 nM): 5 to 10%; inhibition at 0.5 µM ([3]; MV-4-11, 500 nM): 80 to 100%; inhibition at 0.01 µM ([5]; Table IN2): 0 to 5%; inhibition at 0.01 µM ([5]; Table IN3): 20 to 30%; inhibition at 0.5 µM ([5]; Table IN2): 30 to 50%; inhibition at 0.5 µM ([5]; Table IN3): 10 to 15% |
| C=CC(=O)N1CCC[C@@H](n2nc(-c3ccc(Oc4ccccc4)cc3)c3c(N)ncnc32)C1 [ibrutinib, Ibrutinib, reference compound] | – | – | – | – | – | – | IC50 [6]: > 10000 nM; IC50 [7]: > 10000 nM; IC50 [8]: 1000 to 5000 nM; IC50 [9]: > 10000 nM; IC50 (JEKO-1): > 10000 nM |
| COc1cc(N2CCC(N(C)Cc3ccc4c(c3)CN(N3CCC(=O)NC3=O)C4=O)CC2)ccc1Nc1ncc(Cl)c(Nc2ccccc2P(C)(C)=O)n1 [GT-08148, 1-(5-(((1-(4-((5-chloro-4-((2-(dimethylphosphoryl)phenyl)amino)pyrimidin-2-yl)amino)-3-methoxyphenyl)piperidin-4-yl)(methyl)amino)methyl)-1-oxoisoindolin-2-yl)dihydropyrimidine-2,4 (1H,3H)-dione] | 15 to 20 | 45 to 55 | 30 to 45 | 90 to 100 | 5 to 10 | 60 to 80 | – |
